Residue numbers refer to the chain shown, from its start.
What was measured:
RET(KD: 658-1114 G810R) = target: T1, RET(KD: 658-1114 G810R) (Homo sapiens, UniProt P07949, G810R); assay: HiBiT-Degradation, RET G810R degradation assay (Nano-Glo HiBiT Lytic), 293T.165 cells; format: cell-based; settings: for Emax / DC50: 6.0 hours; for Emax: % remaining protein, read-out: 293T.165 RET(KD: 658-1114 G810R) 6.0 hours (Emax); for DC50: half-maximal degradation concentration, read-out: 293T.165 RET(KD: 658-1114 G810R) 6.0 hours (DC50)
T1 construct: 658-1114; expressed in transfected cells; host or cells: 293T.165 (293T cells, generated in-house)
T1 sequence (P07949 658-1114 G810R): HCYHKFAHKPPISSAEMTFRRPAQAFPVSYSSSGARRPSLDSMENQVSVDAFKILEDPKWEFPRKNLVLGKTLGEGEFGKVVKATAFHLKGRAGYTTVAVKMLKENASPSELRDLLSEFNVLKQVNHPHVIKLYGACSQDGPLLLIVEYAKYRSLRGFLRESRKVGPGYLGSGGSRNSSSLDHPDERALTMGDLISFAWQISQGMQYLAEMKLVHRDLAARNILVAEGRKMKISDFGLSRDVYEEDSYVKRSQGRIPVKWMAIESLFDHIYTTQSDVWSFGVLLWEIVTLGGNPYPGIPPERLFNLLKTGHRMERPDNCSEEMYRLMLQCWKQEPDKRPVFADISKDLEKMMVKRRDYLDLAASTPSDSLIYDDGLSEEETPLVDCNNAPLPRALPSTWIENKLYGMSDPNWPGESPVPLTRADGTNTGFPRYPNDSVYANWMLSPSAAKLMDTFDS
Summary of the method: (§1)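 6 h treatment, 293T.144 (WT) / 293T.165 (G810R) cells ectopically expressing HiBiT-fused RET KD; 11-pt half-log dilution, top 10 μM, n=2. Nano-Glo HiBiT lytic detection, luminescence. Output: DC50, Emax (% protein remaining).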

RET (658-1114) = target: T2, RET (658-1114) (Homo sapiens, UniProt P07949); assay: HiBiT-Degradation, RET wild-type degradation assay (Nano-Glo HiBiT Lytic), 293T.144 cells; format: cell-based; settings: for Emax / DC50: 6.0 hours; for Emax: % remaining protein, read-out: 293T.144 RET (658-1114) 6.0 hours (Emax); for DC50: half-maximal degradation concentration, read-out: 293T.144 RET (658-1114) 6.0 hours (DC50)
T2 construct: 658-1114; expressed in transfected cells; host or cells: 293T.144 (293T cells, generated in-house)
T2 sequence (P07949 658-1114): T1 sequence (P07949 658-1114 G810R) with R153G
Summary of the method: as §1

293T.165 RET(KD: 658-1114 G810R) 6.0 hours (IP) [nM] (RET(KD: 658-1114 G810R))	Emax (RET(KD: 658-1114 G810R)) [%]	DC50 (RET(KD: 658-1114 G810R)) [nM]	293T.144 RET (658-1114) 6.0 hours (IP) [nM] (RET (658-1114))	Emax (RET (658-1114)) [%]	DC50 (RET (658-1114)) [nM]	SMILES
++++ (<50 nM = ++++)	< 30	< 100	++++ (<50 nM = ++++)	< 30	< 50	CC(C)NC(=O)C1(C)CCN(c2ccc(-c3cc(-c4cnn(C5CCC6(CC5)CN(C(=O)CN5CCC(c7ccc(NC8CCC(=O)NC8=O)cc7)CC5)C6)c4)cn4ncc(C#N)c34)cn2)CC1 (stereo not drawn) [Compound 196, 1-(5-(3-cyano-6-(1-(2-(2-(4-(4-((2,6-dioxopiperidin-3-yl)amino)phenyl)piperidin-1-yl)acetyl)-2-azaspiro[3.5]nonan-7-yl)-1H-pyrazol-4-yl)pyrazolo[1,5-a]pyridin-4-yl)pyridin-2-yl)-N-isopropyl-4-methylpiperidine-4-carboxamide]
++++ (<50 nM = ++++)	< 30	< 50	++++ (<50 nM = ++++)	< 30	< 50	N#Cc1cnn2cc(-c3cnn(C4CCN(C(=O)CC5(O)CCN(c6ccc(NC7CCC(=O)NC7=O)cc6F)CC5)CC4)c3)cc(-c3ccc(N4CCC(c5ccc(O)cc5)CC4)nc3)c12 (stereo not drawn) [Compound 197, 6-[1-[1-[2-[1-[4-[(2,6-dioxo-3-piperidyl)amino]-2-fluoro-phenyl]-4-hydroxy-4-piperidyl]acetyl]-4-piperidyl]pyrazol-4-yl]-4-[6-[4-(4-hydroxyphenyl)-1-piperidyl]-3-pyridyl]pyrazolo[1,5-a]pyridine-3-carbonitrile]
++++ (<50 nM = ++++)	< 30	< 50	++++ (<50 nM = ++++)	< 30	< 50	N#Cc1cnn2cc(-c3cnn(C4CCN(C(=O)CC5(O)CCN(c6ccc(NC7CCC(=O)NC7=O)cc6F)CC5)CC4)c3)cc(-c3ccc(N4CCC(c5cccc(O)c5)CC4)nc3)c12 (stereo not drawn) [Compound 198, 6-[1-[1-[2-[1-[4-[(2,6-dioxo-3-piperidyl)amino]-2-fluoro-phenyl]-4-hydroxy-4-piperidyl]acetyl]-4-piperidyl]pyrazol-4-yl]-4-[6-[4-(3-hydroxyphenyl)-1-piperidyl]-3-pyridyl]pyrazolo[1,5-a]pyridine-3-carbonitrile]
+++ (<100 nM = +++)	< 30	< 50	++++ (<50 nM = ++++)	< 30	< 50	CCC1(C(=O)NC(C)C)CCN(c2ccc(-c3cc(-c4cnn(C5CC6(C5)CN(C5CCN(c7ccc(NC8CCC(=O)NC8=O)cc7F)CC5)C6)c4)cn4ncc(C#N)c34)cn2)CC1 (stereo not drawn) [Compound 199, 1-(5-(3-cyano-6-(1-(2-(1-(4-((2,6-dioxopiperidin-3-yl)amino)-2-fluorophenyl)piperidin-4-yl)-2-azaspiro[3.3]heptan-6-yl)-1H-pyrazol-4-yl)pyrazolo[1,5-a]pyridin-4-yl)pyridin-2-yl)-4-ethyl-N-isopropylpiperidine-4-carboxamide]
++++ (<50 nM = ++++)	< 30	< 50	++++ (<50 nM = ++++)	< 30	< 50	CCC1(C(=O)NC[C@H]2C[C@H](F)C2)CCN(c2ccc(-c3nc(-c4cnn([C@H]5CC[C@H](N6CCN(c7ccc(NC8CCC(=O)NC8=O)cc7F)CC6)CC5)c4)cn4ncc(C#N)c34)cn2)CC1 (stereo partly drawn) [Compound 207, 1-[5-[3-cyano-6-[1-[4-[4-[4-[(2,6-dioxo-3-piperidyl)amino]-2-fluoro-phenyl]piperazin-1-yl]cyclohexyl]pyrazol-4-yl]pyrazolo[1,5-a]pyrazin-4-yl]-2-pyridyl]-4-ethyl-N-[(3-fluorocyclobutyl)methyl]piperidine-4-carboxamide]
++++ (<50 nM = ++++)	< 30	< 100	++++ (<50 nM = ++++)	< 30	< 50	COc1cc(N2CCN([C@H]3CC[C@H](n4cc(-c5cn6ncc(C#N)c6c(-c6ccc(N7C[C@@H]8C[C@@](C)(NC(=O)c9ncccc9Cl)C[C@@H]8C7)nc6)n5)cn4)CC3)CC2)c(F)cc1NC1CCC(=O)NC1=O (stereo partly drawn) [Compound 209, N-[(3aR,6aS)-2-[5-[3-cyano-6-[1-[4-[4-[4-[(2,6-dioxo-3-piperidyl)amino]-2-fluoro-5-methoxy-phenyl]piperazin-1-yl]cyclohexyl]pyrazol-4-yl]pyrazolo[1,5-a]pyrazin-4-yl]-2-pyridyl]-5-methyl-1,3,3a, 4,6,6a-hexahydrocyclopenta[c]pyrrol-5-yl]-3-chloro-pyridine-2-carboxamide]

SMILES	293T.165 RET(KD: 658-1114 G810R) 6.0 hours (IP) [nM] (RET(KD: 658-1114 G810R))	Emax (RET(KD: 658-1114 G810R)) [%]	DC50 (RET(KD: 658-1114 G810R)) [nM]	293T.144 RET (658-1114) 6.0 hours (IP) [nM] (RET (658-1114))	Emax (RET (658-1114)) [%]	DC50 (RET (658-1114)) [nM]
COc1cc(N2CCN(C3CCC(n4cc(-c5cn6ncc(C#N)c6c(-c6ccc(N7CC8COCC(C7)N8Cc7ccccn7)nc6)n5)cn4)CC3)CC2)c(F)cc1NC1CCC(=O)NC1=O (stereo not drawn) [Compound 205, 6-[1-[4-[4-[4-[(2,6-dioxo-3-piperidyl)amino]-2-fluoro-5-methoxy-phenyl]piperazin-1-yl]cyclohexyl]pyrazol-4-yl]-4-[6-[9-(2-pyridylmethyl)-3-oxa-7,9-diazabicyclo[3.3.1]nonan-7-yl]-3-pyridyl]pyrazolo[1,5-a]pyrazine-3-carbonitrile]	+++ (<100 nM = +++)	< 30	< 100	++++ (<50 nM = ++++)	< 30	< 50
COc1ccc(CN2C3COCC2CN(c2ccc(-c4nc(-c5cnn(C6CCC(N7CCC(c8ccc(NC9CCC(=O)NC9=O)cc8Cl)CC7)CC6)c5)cn5ncc(C#N)c45)cn2)C3)cn1 (stereo not drawn) [Compound 206, 6-[1-[4-[4-[2-chloro-4-[(2,6-dioxo-3-piperidyl)amino]phenyl]-1-piperidyl]cyclohexyl]pyrazol-4-yl]-4-[6-[9-[(6-methoxy-3-pyridyl)methyl]-3-oxa-7,9-diazabicyclo[3.3.1]nonan-7-yl]-3-pyridyl]pyrazolo[1,5-a]pyrazine-3-carbonitrile]	++++ (<50 nM = ++++)	< 30	< 100	++++ (<50 nM = ++++)	< 30	< 50
Cn1nc(N2CCC(=O)NC2=O)c2ccc(N3CCN([C@H]4CC[C@H](n5cc(-c6cn7ncc(C#N)c7c(-c7ccc(N8C[C@H]9COC[C@@H](C8)N9Cc8ccccn8)nc7)n6)cn5)CC4)CC3)c(F)c21 [Compound 208, 6-[1-[4-[4-[3-(2,4-dioxohexahydropyrimidin-1-yl)-7-fluoro-1-methyl-indazol-6-yl]piperazin-1-yl]cyclohexyl]pyrazol-4-yl]-4-[6-[(1S,5R)-9-(2-pyridylmethyl)-3-oxa-7,9-diazabicyclo[3.3.1]nonan-7-yl]-3-pyridyl]pyrazolo[1,5-a]pyrazine-3-carbonitrile]	++++ (<50 nM = ++++)	< 30	< 100	++++ (<50 nM = ++++)	< 30	< 50

— US12661410B2, “Compounds for targeted degradation of RET” (C4 Therapeutics, Inc., priority 2020, dated 2026)
